Experimental data from ChEMBL document CHEMBL5113370, “Primed for global coronavirus pandemic: Emerging research and clinical outcome” (Eur J Med Chem, 2021).

Key:
[1] = system: SARS-CoV-2; experiment: Antiviral activity against SARS-CoV 2 infected in african green monkey Vero E6 cells by immunofluorescence assay; format: functional, organism-based; settings: Severe acute respiratory syndrome coronavirus 2, Vero C1008
[2] = Cytotoxicity against African green monkey Vero cells by CCK8 assay method; format: toxicity, cell-based; settings: chlorocebus sabaeus
[3] = Selectivity index, ratio of IC50 for African green monkey Vero cells to IC50 for antiviral activity against SARS-CoV 2 nCoV-2019BetaCoV/Wuhan/WIV04/2019; format: toxicity; settings: read-out: Ratio IC50
[4] = system: SARS-CoV-2; experiment: Antiviral activity against SARS-CoV 2 nCoV-2019BetaCoV/Wuhan/WIV04/2019 infected in african green monkey Vero E6 cells measured after 48 hrs; format: functional, organism-based; settings: Severe acute respiratory syndrome coronavirus 2, nCoV-2019BetaCoV/Wuhan/WIV04/2019, Vero C1008, 48 h

Compound: CCN(CC)CCOc1ccc2c(c1)C(=O)c1cc(OCCN(CC)CC)ccc1-2 [TILORONE]
- IC50 [1]: 4.09 µM

Compound: NC(=O)c1ncn([C@@H]2O[C@H](CO)[C@@H](O)[C@H]2O)n1 [RIBAVIRIN]
- CC50 [2]: > 400 µM
- selectivity ratio [3]: > 3.65
- EC50 [4]: 110 µM
